Test results: patent US20080300276A1, “Heterocyclic Carboxylic Acide Amide Derivatives” (priority 2004, published 2008)
Read-outs that look alike come from different tables or passages of the source. Marks after values point to notes of the source that are not given here.

How the values were obtained:
[1] = molecular target: T1, NR2B containing NMDA receptors (Rattus norvegicus, UniProt P35439+Q00960); experiment: NMDA antagonist potency by fluorimetric intracellular calcium measurement in rat cortical cell culture; format: cell-based; settings: fluorimetric method, 40 μM NMDA
T1 construct: primary neocortical cell cultures derived from 17 day old Charles River rat embryos; endogenous in cells; host or cells: primary rat embryonic (E17) neocortical cell culture, 3-7 days in vitro
Description: Assessment of NMDA Antagonist Potency In Vitro by Measurement of Intracellular Calcium Concentration with a Plate Reader Fluorimeter in Rat Cortical Cell Culture
The intracellular calcium measurements were carried out on primary neocortical cell cultures derived from 17 day old Charles River rat embryos (for the details on the preparation of neocortical cell culture see Johnson, M. I.; Bunge, R. P. (1992): Primary-cell cultures of peripheral and central neurons and glia. In: Protocols for Neural Cell Culture, eds: Fedoroff, S.; Richardson A., The Humana Press Inc., 51-75. After isolation the cells were plated onto standard 96-well microplates and the cultures were maintained in an atmosphere of 95% air-5% CO2 at 37° C. until the calcium measurements.
The cultures were used for the intracellular calcium measurements after 3-7 days in vitro. The cells at this in vitro age are believed to express predominantly NR2B containing NMDA receptors [Mol. Pharmacol. 45, 846-853. (1994)]. Before the measurement the cells were loaded with a fluorescent Ca^2+-sensitive dye, Fluo-4/AM (2 μM). To stop the loading the cells were washed twice with the solution used for the measurement (140 mm NaCl, 5 mM KCl, 2 mM CaCl2, 5 mM HEPES, 5 mM HEPES-Na, 20 mM glucose, 10 mM glycine, pH=7.4). After washing the test compounds were added to the cells in the above solution (90 μl/well). Intracellular calcium measurements were carried out with a plate reader fluorimeter: elevation of Fluo-4-fluorescence and so, intracellular calcium concentration was induced by application of 40 μM NMDA. Inhibitory potency of the test compounds was assessed by measuring the reduction in the calcium elevation in the presence of different concentrations of the compounds.
(§1) Dose-response curves and IC50-values were calculated using data derived from at least three independent experiments. Inhibitory potency of a compound at a single concentration point was expressed as percent inhibition of the NMDA response. Sigmoidal concentration-inhibition curves were fit to the data and IC50 values were determined as the concentration that produces half of the maximal inhibition caused by the compound.

[2] = test system: spontaneous locomotor activity; experiment: Spontaneous locomotor activity (LMA) in mice; format: in vivo, mouse; settings: for locomotor stimulation relative to analgesic dose range (in words): mouse, in vivo
Description: Male NMRI mice weighing 20-22 g were used in the experiments.
Spontaneous locomotor activity was measured in a four-channel activity monitor. The apparatus consisted of acrylic cages. (43 cm×43 cm×32 cm) equipped with 2×16 pairs of photocells along all the bottom axis of the cage. An additional array of photocells (16 pairs) was placed along two opposite sides of the cage at the height of 10 cm in order to detect rearing responses.
Experimental groups consisted of 10 animals. Thirty minutes after the oral administration of the test compound or vehicle (tween-80), the animals were individually placed in one of four cages for one hour. Horizontal and vertical movements were determined as the number of beam interruptions for one hour at 15 min intervals.
Mean ±SE of horizontal activity data of each group was calculated then percentual changes compared to the control (vehicle-treated) group were determined. A compound was considered to cause locomotor stimulation when its effect exceeded 50% increase in beam interruptions. Consequently, doses defined as free of stimulatory action (UM) produced less than 50% increase.

[3] = molecular target: T2, recombinant NMDA receptors NR1/NR2A (Homo sapiens, UniProt Q05586+Q12879); experiment: Inhibition of NMDA evoked cytosolic calcium elevations in transfected HEK293 cells; format: cell-based; settings: for inhibition at 15 µM / inhibition at 10 µM: HEK293; for inhibition at 10 µM: read-out: NR1-3/NR2A % inhibition at 10 μM
T2 construct: expressed in transfected cells
Description: (1997); Neurochemistry International, 43, 19-29. (2003)]. […] Compounds were tested for their inhibitory action on NMDA evoked cytosolic calcium elevations in fluorescent calcium measurements. Studies were performed 48-72 h after addition of the inducing agent. Ketamine ([…] was also present during the induction in order to prevent cytotoxicity.
as §1

[4] = test system: formalin response (licking/biting of the injected paw); experiment: Mouse formalin test (second phase); format: in vivo; settings: for ED50: Mus musculus, read-out: Formalin ED50
Description: Injection of diluted formalin into the hind paw of rats or mice is known to elicit a biphasic pain-related behaviour measured as time spent by licking/biting of the injured paw. The second phase is generally defined as pain related events detected in the 15-60 min. time interval ater formalin injection, with peak activity at around 30 min. It is known that NMDA receptors are involved in the second phase of response to formalin injection and this behavioural response is sensitive to blockade of NMDA receptors [Dickenson, A. and Besson J.-M. (Editors): Chapter 1, pp. 6-7: Animal models of Analgesia; and Chapter 8, pp. 180-183: Mechanism of Central Hypersensitivity: Excitatory Amino Acid Mechanisms and Their Control—In Pharmacology of Pain. Springer-Verlag (Berlin) 1997.] Therefore, we used the second phase of formalin test to characterize the efficacy of compounds in vivo. Inhibition of the second phase of response is considered to indicate an analgesic effect against chemically-induced persistent pain [Hunskaar, S., et al.: Formalin Test in Mice, a Useful Technique for Evaluating Mild Analgesics, Journal of Neuroscience Methods, 14 (1985) 69-76.]
Male albino Charles River NMRI mice (20-25 g) were used. Prior to the experiment any solid food was withdrawn for approx. 16 hours but the animals had free access to 20% glucose solution. The animals were allowed 1 hour acclimatization period in a glass cylinder (cc. 15 cm in diameter), then moved to an identical cylinder with a mirror placed behind to facilitate observation. The test substances were suspended in 5% tween-80 (10 ml per kg body weight) and administered orally by gavage 15 min before the formalin injection (20 μl of 1% formalin in 0.9% saline injected subcutaneously into the dorsal surface of the right hindpaw). The time spent by licking and biting of the injected paw was measured from 20 to 25 min. after the formalin injection.

locomotor activity = settings: cited from earlier work; for effect on locomotor activity (in words): animal behavioural studies
[5] = read-out: Rat cortical cells (NR2B) appr. IC50
[6] = oral, 15 min before formalin, licking time 20 to 25 min
[7] = read-out: rat cortical cells IC50

T2 sequence (Q12879 23-1464, other chains not shown): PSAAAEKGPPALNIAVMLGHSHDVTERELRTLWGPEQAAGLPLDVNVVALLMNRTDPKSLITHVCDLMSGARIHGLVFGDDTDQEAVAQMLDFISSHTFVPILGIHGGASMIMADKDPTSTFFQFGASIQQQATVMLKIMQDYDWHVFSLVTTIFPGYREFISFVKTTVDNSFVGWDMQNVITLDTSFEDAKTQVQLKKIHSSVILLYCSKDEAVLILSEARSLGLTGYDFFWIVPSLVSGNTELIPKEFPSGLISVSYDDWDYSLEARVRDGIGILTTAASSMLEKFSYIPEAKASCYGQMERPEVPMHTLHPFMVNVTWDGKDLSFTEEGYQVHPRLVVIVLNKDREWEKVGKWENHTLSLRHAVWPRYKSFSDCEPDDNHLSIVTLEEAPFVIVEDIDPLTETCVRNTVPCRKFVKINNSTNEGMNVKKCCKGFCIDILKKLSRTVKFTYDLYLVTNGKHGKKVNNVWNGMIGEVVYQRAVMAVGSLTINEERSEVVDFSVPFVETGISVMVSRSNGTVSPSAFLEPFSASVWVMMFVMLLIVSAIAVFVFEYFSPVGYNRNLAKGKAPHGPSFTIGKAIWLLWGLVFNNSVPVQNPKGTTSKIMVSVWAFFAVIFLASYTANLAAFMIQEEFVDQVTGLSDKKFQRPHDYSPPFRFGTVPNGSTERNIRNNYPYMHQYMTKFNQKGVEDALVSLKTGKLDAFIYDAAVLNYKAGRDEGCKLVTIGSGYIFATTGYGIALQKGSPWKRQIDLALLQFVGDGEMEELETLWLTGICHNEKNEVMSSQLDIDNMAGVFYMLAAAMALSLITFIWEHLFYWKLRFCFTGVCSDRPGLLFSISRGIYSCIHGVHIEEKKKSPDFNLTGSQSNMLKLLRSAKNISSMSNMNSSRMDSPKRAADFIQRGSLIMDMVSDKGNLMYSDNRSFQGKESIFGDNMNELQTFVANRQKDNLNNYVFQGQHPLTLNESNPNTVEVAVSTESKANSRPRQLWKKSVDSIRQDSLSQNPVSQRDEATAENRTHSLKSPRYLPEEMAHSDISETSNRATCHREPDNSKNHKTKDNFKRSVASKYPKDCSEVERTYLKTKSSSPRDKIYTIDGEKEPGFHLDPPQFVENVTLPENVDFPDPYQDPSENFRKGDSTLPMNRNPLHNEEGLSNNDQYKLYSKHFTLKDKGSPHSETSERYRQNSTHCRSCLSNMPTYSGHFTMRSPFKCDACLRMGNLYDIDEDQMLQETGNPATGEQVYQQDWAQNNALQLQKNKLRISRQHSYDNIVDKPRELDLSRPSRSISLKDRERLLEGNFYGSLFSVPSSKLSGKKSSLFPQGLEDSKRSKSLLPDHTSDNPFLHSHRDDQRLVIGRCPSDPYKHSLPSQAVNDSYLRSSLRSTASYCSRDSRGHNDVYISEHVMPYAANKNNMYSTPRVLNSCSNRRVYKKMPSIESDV
T1 sequence (Q00960 27-1482, other chains not shown): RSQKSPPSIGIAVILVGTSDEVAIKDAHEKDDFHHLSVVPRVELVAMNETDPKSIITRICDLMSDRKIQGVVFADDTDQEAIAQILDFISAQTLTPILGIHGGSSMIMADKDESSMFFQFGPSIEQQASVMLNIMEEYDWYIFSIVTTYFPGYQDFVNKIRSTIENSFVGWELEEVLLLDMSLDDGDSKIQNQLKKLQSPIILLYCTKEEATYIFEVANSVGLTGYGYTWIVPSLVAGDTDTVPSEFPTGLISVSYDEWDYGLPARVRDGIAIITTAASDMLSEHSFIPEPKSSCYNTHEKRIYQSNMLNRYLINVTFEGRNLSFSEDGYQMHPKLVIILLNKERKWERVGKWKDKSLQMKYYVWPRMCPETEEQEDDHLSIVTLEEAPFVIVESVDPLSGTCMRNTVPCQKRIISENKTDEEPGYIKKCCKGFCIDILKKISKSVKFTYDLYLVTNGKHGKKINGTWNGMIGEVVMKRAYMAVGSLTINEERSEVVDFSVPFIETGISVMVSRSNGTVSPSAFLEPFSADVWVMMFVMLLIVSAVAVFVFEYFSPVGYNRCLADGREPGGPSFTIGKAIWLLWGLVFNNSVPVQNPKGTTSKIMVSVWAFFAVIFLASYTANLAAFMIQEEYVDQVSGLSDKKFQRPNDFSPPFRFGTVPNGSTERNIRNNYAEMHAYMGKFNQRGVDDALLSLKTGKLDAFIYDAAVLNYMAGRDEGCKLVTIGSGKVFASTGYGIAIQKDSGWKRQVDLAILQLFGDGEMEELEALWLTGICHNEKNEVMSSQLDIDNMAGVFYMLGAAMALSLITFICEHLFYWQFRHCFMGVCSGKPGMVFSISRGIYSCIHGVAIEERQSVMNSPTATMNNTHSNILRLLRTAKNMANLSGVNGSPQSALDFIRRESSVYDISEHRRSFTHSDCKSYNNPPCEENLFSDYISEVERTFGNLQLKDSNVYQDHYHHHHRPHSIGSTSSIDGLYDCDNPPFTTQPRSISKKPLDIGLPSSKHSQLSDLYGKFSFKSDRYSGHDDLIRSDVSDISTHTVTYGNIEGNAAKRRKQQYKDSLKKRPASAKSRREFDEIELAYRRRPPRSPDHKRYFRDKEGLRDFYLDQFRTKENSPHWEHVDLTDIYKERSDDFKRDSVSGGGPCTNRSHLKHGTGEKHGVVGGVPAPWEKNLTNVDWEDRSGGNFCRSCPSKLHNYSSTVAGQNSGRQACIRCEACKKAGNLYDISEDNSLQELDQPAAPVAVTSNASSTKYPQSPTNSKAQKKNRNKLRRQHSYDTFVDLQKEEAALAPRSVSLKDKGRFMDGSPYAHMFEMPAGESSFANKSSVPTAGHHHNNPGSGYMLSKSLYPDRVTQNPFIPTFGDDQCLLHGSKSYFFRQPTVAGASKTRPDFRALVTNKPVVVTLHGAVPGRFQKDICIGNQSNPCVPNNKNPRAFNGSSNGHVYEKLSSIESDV

## O=C(c1cc2ccc(O)cc2[nH]1)N1CCC(=Cc2ccccc2)CC1 [Example 6, (4-Benzylidene-piperidine-1-yl)-(6-hydroxy-1H-indol-2-yl)-methanone]
[1]; [5]
  IC50: 50 to 500 nM
[2]; dose 3.75 mg/kg oral
  LMA % increase: 0%
[2]; dose 7.5 mg/kg oral
  LMA % increase: 55%
[2]; dose 15 mg/kg oral
  LMA % increase: 69%
[3]
  inhibition at 15 µM: < 30%
[4]; [6]
  ED50: 0.43 mg/kg

## O=C(CCN1CCC(Cc2ccc(F)cc2)CC1)c1ccc2[nH]c(=O)oc2c1 [EMD 95885]
[1]; [7]
  IC50: 35 nM
[3]
  NR1-3/NR2A % inhibition at 10 μM: 0.1%

## O=c1[nH]c2ccc([S+]([O-])CCN3CCC(Cc4ccc(F)cc4)CC3)cc2o1 (stereo not drawn) [CI-1041, 6-{2-[4-(4-fluoro-benzyl)-piperidin-1-yl]-ethanesulfinyl}-3H benzooazol-2-one]
[2]; dose 10 mg/kg oral
  LMA % increase: 137%
[2]
  locomotor stimulation relative to analgesic dose range (in words): no separation between the doses causing analgesia and those stimulating locomotor activity
[3]
  inhibition at 10 µM: 21%
[4]; [6]
  ED50: 2.4 mg/kg

## Cc1ccc(CC2(O)CCN(CCOc3ccc(O)cc3)CC2)cc1 [Co-101244, 1-[2-(4-hydroxyphenoxy)ethyl]-4-hydroxy-4-(4-methylbenzyl)piperidine]
[3]
  inhibition at 10 µM: -8.7%

## O=C(c1nc2ccc(O)cc2[nH]1)N1CCC(=Cc2ccccc2)CC1 [Example 1, (4-Benzylidene-piperidine-1-yl)-(6-hydroxy-1H-benzoimidazol-2-yl)-methanone]
[1]; [5]
  IC50: < 50 nM
[2]; dose 15 mg/kg oral
  LMA % increase: 27%
[2]; dose 30 mg/kg oral
  LMA % increase: 63%
[3]
  inhibition at 15 µM: 33%
[4]; [6]
  ED50: 2.6 mg/kg

## Cc1ccc(C=C2CCN(C(=O)c3nc4ccc(O)cc4[nH]3)CC2)cc1 [Example 2, (6-Hydroxy-1H-benzoimidazol-2-yl)-[4-(4-methyl-benzylidene)-piperidine-1-yl]-methanone]
[1]; [5]
  IC50: < 50 nM
[3]
  inhibition at 15 µM: 34%

## O=C(c1cc2ccc(O)cc2[nH]1)N1CCC(Cc2ccccc2)CC1 [“B”, (4-benzyl-piperidin-1-yl)-(6-hydroxy-1H-indol-2-yl)-methanone]
[2]; dose 1.875 mg/kg oral
  LMA % increase: 90%
[2]
  locomotor stimulation relative to analgesic dose range (in words): no separation between the doses causing analgesia and those stimulating locomotor activity
[4]; [6]
  ED50: 1.7 mg/kg

## C[C@@H]([C@@H](O)c1ccc(O)cc1)N1CCC(O)(c2ccccc2)CC1 [CP-101,606]
Locomotor activity
  effect on locomotor activity (in words): no such effect was observed
Locomotor activity; i.p.
  dose up to which locomotor stimulating effect is lacking: ≤ 100 mg/kg
Locomotor activity; s.c.
  dose up to which locomotor stimulating effect is lacking: up to 56 mg/kg
[3]
  NR1-3/NR2A % inhibition at 10 μM: 2.5%
[4]; [6]
  Formalin ED50: >20* mg/kg

## COc1ccc(C=C2CCN(C(=O)c3nc4ccc(O)cc4[nH]3)CC2)cc1 [Example 5, (6-Hydroxy-1H-benzoimidazol-2-yl)-[4-(4-methoxy-benzylidene)-piperidine-1-yl]-methanone]
[1]; [5]
  IC50: < 50 nM
[3]
  inhibition at 15 µM: 52%

## O=C(c1nc2ccc(O)cc2[nH]1)N1CCC(=Cc2ccc(F)cc2)CC1 [Example 3, [4-(4-Fluoro-benzylidene)-piperidine-1-yl]-(6-hydroxy-1H-benzoimidazol-2-yl)-methanone]
[1]; [5]
  IC50: < 50 nM
[3]
  inhibition at 15 µM: < 30%

## C[C@]12N[C@H](Cc3ccccc31)c1ccccc12 [MK-801, (+)-5-Methyl-10,11-dihydro-5H-dibenzo[a,d]cyclohepten-5,10-imine]
[2]; dose 0.1 mg/kg oral
  LMA % increase: 114%
[2]; dose 0.3 mg/kg oral
  LMA % increase: 217%
[4]; po
  ED50: 0.15 mg/kg

## O=C(c1nc2ccc(O)cc2[nH]1)N1CCC(=Cc2ccc(Cl)cc2)CC1 [Example 4, [4-(4-Chloro-benzylidene)-piperidine-1-yl]-(6-hydroxy-1H-benzoimidazol-2-yl)-methanone]
[1]; [5]
  IC50: < 50 nM
[3]
  inhibition at 15 µM: < 30%

## C[C@@H](CN1CCC(Cc2ccccc2)CC1)[C@@H](O)c1ccc(O)cc1 (relative stereo) [Ro 25-6981, R-(R*,S*)-1-(4-hydroxyphenyl)-2-methyl-3-[4-(phenylmethyl)piperidin-1-yl]-1-propanol]
Locomotor activity
  effect on locomotor activity (in words): increase locomotor activity
Locomotor activity; listed as Ro 256981
  effect on locomotor activity (in words): no such effect was observed
[1]; [7]
  IC50: 159 nM
[3]
  NR1-3/NR2A % inhibition at 10 μM: 1.0%
[4]; [6]
  Formalin ED50: >20* mg/kg

## (benzyl-piperidin-1-yl)-(6-hydroxy-1H-benzoimidazol-2-yl)-methanone [“A”]
[2]; dose 1.875 mg/kg oral
  LMA % increase: 80%
[2]
  locomotor stimulation relative to analgesic dose range (in words): no separation between the doses causing analgesia and those stimulating locomotor activity
[4]; [6]
  Formalin ED50: 1.6 mg/kg
